Assay results from US20120277265A1, “NOVEL POLYQUINOLINE DERIVATIVES AND THE THERAPEUTIC USE THEREOF” (CENTRE NATIONAL DE LA RECHERCHE SCIENTIFIQUE (C.N.R.S.), priority 2005, published 2012).
Read-outs that look alike come from different tables or passages of the source.

How the values were obtained:
[1] = Competition reaction between ligand (Ls), CuCl2 and competing chelator (Lc), UV-visible; affinity constants; settings: for number of Lc equivalents making it possible to form 50% of CuLs, Lc = EDTA: mixture of Ls (15 μM, 1 equivalent) and CuCl2 (1/1, mol/mol); for % MLs: Cu(II), EDTA as Lc, 1/1/1 at 15 μM
Description: An organic solvent (CH3OH, dioxane or DMSO) was added in order to achieve good solubility of all the ligands and metal complexes in the concentrations used in these experiments. Monitoring has shown that all the ligands and metal complexes examined yield results corresponding to the Beer-Lambert Law in the experimental conditions used.
Lc competing chelators were selected to provide a range of stability constants for the metal ion M presenting intervals of approximately one or two log units, as well as to make it possible for each competition experiment to quantify one of the Ls, MLs, Lcc or MLc species with a UV-vis spectrum wavelength without contaminating the three other species (FIG. 7). […] As the concentration [MLs]=x % of C is measured on the UV-visible spectra, the concentrations [Ls]=(1−x) % of C, [MLc]=(1−x) % of C and [Lc]=x % of C can be deduced therefrom and:
In these conditions, [MLs]=[MLc]; [MLs]+[Lc]=Y, y≧50 and:

Aβ1-42 = molecular target: T1, Aβ1-42 (Homo sapiens, UniProt P05067); assay: Inhibition of the precipitation of Aβ1-42 by the addition of ligand (Micro BCA assay of soluble/aggregated peptide); type: biochemical; settings: Aβ1-42 5 μM, pH 7.4; for CuCl2 % soluble Aβ: 20 μM CuCl2, 1 h 37° C. then 1 h with 200 μM ligand; for FeCl3 % soluble Aβ: 20 μM FeCl3, 1 h 37° C. then 1 h with 200 μM ligand; for ZnCl2 % soluble Aβ: 20 μM ZnCl2, 1 h 37° C. then 1 h with 200 μM ligand; for without metal % soluble Aβ: no metal salt, 1 h 37° C. then 1 h with 200 μM ligand
T1 construct: The β-amyloid peptide Aβ1-42 (Aβ1-42) was synthesised, purified (to a purity greater than 95%); made in house; host or cells: chemical peptide synthesis (no expression host)
Summary of the method: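 Aβ1-42 (5 μM) pre-aggregated 1 h at 37 °C with stirring in 20 mM Tris-HCl/150 mM NaCl pH 7.4, with or without CuCl2, ZnCl2 or FeCl3 (20 μM). Ligand (200 μM, DMSO) added, 1 further hour at 37 °C; after centrifugation, peptide in supernatant and pellet quantified by Micro BCA against BSA standards.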

[2] = molecular target: T2, copper complexes of Aβ1-42 peptide (Homo sapiens, UniProt P05067); assay: Stability of H2O2 during the H2O2 production inhibition experiments (known amount of H2O2 added); type: biochemical; settings: Aβ1-42 0.2 μM, Cu(II) 0.4 μM, ascorbate 10 μM, ligand 0.4 μM
T2 construct: The β-amyloid peptide Aβ1-42 (Aβ1-42) was synthesised, purified (to a purity greater than 95%); made in house; host or cells: chemical peptide synthesis (no expression host)
Description: (§1) The final concentrations are given. The reactions were carried out in the dark in mM sodium phosphate buffer (pH=7.4). Aβ1-42 (0.2 μM) and CuCl2 (0.4 μM) were pre-incubated for 1 hour at 37° C. while stirring at 1,400 rpm in 375 μl of buffer. Then 2 μl of a solution of ligand to be investigated (0.2; 0.4 or 0.8 μM) in DMSO were added. After incubation for a further hour, 2 μl of an aqueous sodium ascorbate solution (10 μM) were added and incubation was continued for 5 min while stirring. The amount of H2O2 produced is then quantified using an Amplex Red H2O2/HRP Assay Kit (Molecular Probes) while adding a volume of assay reagent to the samples, then incubating them for 1 hour at 37° C. while stirring at 500 rpm. H2O2 is then detected by spectrophotometry at 563 nm. Quantification is carried out on the basis of standard curves obtained with known amounts of H2O2.
(§2) Experiments were also carried out in the presence of a known amount of H2O2, added just before or just after the addition of sodium ascorbate, in order to investigate the stability of H2O2 under the experimental conditions employed.

[3] = system: copper complexes of Aβ1-42 peptide; assay: as above; type: biochemical; settings: for theoretical value of H2O2 if there is no degradation (in parentheses): ascorbate, ligand; for H2O2 assayed: no Aβ1-42, Cu(II) 0.4 μM, ligand 0.4 μM
Description: as §1, §2

[4] = system: Salmonella tiphimurium TA100; assay: AMES test, TA100
Excerpt: AMES test: The method is adapted from D. M. Maron and B. N. Ames, Mutat.
The test involves evaluating the potential of the tested molecules to induce mutation which is reverse to the histidine locus of these lines. These two lines were provided by Dr. Bruce N. Ames (University of California, Berkeley, USA). They are resistant to Ampicillin and sensitive to Tetracycline. They are not mutant toward rfa, UvγV and UvγA. The line TA98 (his D3052) contains a mutation of reading phase (GC) whereas the line TA100 (his G46) contains a substitution of base pair (GC).
The compounds to be tested were dissolved in 100% of DMSO (the solvent) and diluted logarithmically (by a factor of 10) so as to obtain 4 test concentrations of 30,000; 3,000; 300 and 30 μg/ml. Each series of 0.1 ml of stock solution to be tested, 0.1 ml of test line and of culture medium with or without 0.5 ml of enzymatic homogenate (S9) of rat liver microsome were mixed with 2 ml of molten agarose (containing 0.5 mM of histidine and 0.5 mM of biotin). This mixture was placed on the surface of a plate of minimal agarose glucose medium (30 ml for each Petri dish) so as to obtain final concentrations of compound to be tested of 3,000; 300; 30 and 3 μγ/plate. The plates were then incubated at 37° C. for 48 hours. […] The revertant colonies of the test lines were counted using a colony counter (Sigma). […] A compound inducing a number of colonies <50% of cells obtained for the solvent alone was deemed to be toxic for the bacteria tested. All the experiments were carried out in triplicate.

[5] = Ls/CuCl2/Lc 1/1/1 at 15 μM, solvent per ligand as in Table 3
[6] = 3.0 nanomoles H2O2 added just after ascorbate
[7] = Aβ1-42 0.2 μM, Cu(II), 3.0 nanomoles H2O2 added just after ascorbate
[8] = value per plate, Addition of S9: no
[9] = value per plate, Addition of S9: yes

T1 sequence (P05067 672-713): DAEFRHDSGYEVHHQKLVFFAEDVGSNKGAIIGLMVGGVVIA
T2 sequence (P05067 672-713 limits assumed, one chain of several): as the sequence (P05067 672-713) above

In the case of `CC(C)(c1ccc2c(Cl)ccc(O)c2n1)c1ccc2c(Cl)ccc(O)c2n1` [Compound 4, 2,2′-(2,2-Propanediyl)-bis(5-chloro-8-hydroxyquinoline)], the “percentage of the CuLs species at equilibrium, competing ligand EDDA” value [1, 5] is reported as 90%, the “percentage of the CuLs species at equilibrium, competing ligand EDTA” value (“percentage … competing ligand EDTA” for short) [1, 5] is reported as 40% and the “percentage of the CuLs species at equilibrium, competing ligand HIDA” value [1, 5] is reported as 100%. The “number of Lc equivalents making it possible to form 50% of CuLs, Lc = EDTA” value [1] was 0.65 eq, the “CuCl2 % soluble Aβ” value (Aβ1-42) was 30% and the “FeCl3 % soluble Aβ” value (Aβ1-42) was 45%. For the same compound, the “ZnCl2 % soluble Aβ” value (Aβ1-42) was 49%, the “without metal % soluble Aβ” value (Aβ1-42) was 55% and the H2O2 assayed [2, 6] was 3.3 nmol. For the same compound, the H2O2 assayed ([2]; no H2O2 added) was 0.37 ± 0.09 nmol and the “theoretical value of H2O2 if there is no degradation (in parentheses)” value [3, 7] was 3.4 nmol.
For `c1cnc2c(Nc3cccc4cccnc34)cccc2c1` [Compound 12, Bis(8-quinoline)amine], the “percentage … competing ligand EDTA” value [1, 5] was 55%, the “CuCl2 % soluble Aβ” value (Aβ1-42) was 69 ± 2% and the “FeCl3 % soluble Aβ” value (Aβ1-42) was 59%. The “ZnCl2 % soluble Aβ” value (Aβ1-42) was 52%, the “without metal % soluble Aβ” value (Aβ1-42) was 69% and the “TA100 Mutagenic effect” value [4] was over 3000 µg. The “TA100 Cytotoxicity” value [4, 8] was over 3000 µg, the “TA100 Cytotoxicity” value [4, 9] was over 3000 µg and the H2O2 assayed [2, 6] was 1.7 nmol. The H2O2 assayed ([2]; no H2O2 added) was 0.47 ± 0.09 nmol, the “theoretical value of H2O2 if there is no degradation (in parentheses)” value [3, 7] was 3.4 nmol and the “degradation of added H2O2” value ([3]; Table 7 conditions) was “none of the added H2O2 is found again”.
In the case of `Oc1cccc2ccc(C(F)(F)c3ccc4cccc(O)c4n3)nc12` [Compound 5, 2,2′-(Difluoromethanediyl)-bis(8-hydroxyquinoline)], the “percentage … competing ligand EDTA” value [1, 5] is reported as 45%, the “CuCl2 % soluble Aβ” value (Aβ1-42) is reported as 51 ± 1% and the “FeCl3 % soluble Aβ” value (Aβ1-42) is reported as 52%. For the same compound, the “ZnCl2 % soluble Aβ” value (Aβ1-42) was 50%, the “without metal % soluble Aβ” value (Aβ1-42) was 60% and the bactericidal effect ([4]; TA100 line in the absence of S9) was at least 300 μg/plate. For the same compound, the “TA100 Cytotoxicity” value [4, 8] was 300 µg, the “TA100 Cytotoxicity” value [4, 9] was over 3000 µg and the “TA100 Mutagenic effect” value [4, 9] was over 3000 µg. The H2O2 assayed [2, 6] was 3.4 nmol, the H2O2 assayed ([2]; no H2O2 added) was 0.55 ± 0.08 nmol and the “theoretical value of H2O2 if there is no degradation (in parentheses)” value [3, 7] was 3.5 nmol.
In the case of `CC(C)(c1ccc2cccc(O)c2n1)c1ccc2cccc(O)c2n1` [Compound 3, 2,2′-(2,2-propanediyl)-bis(8-hydroxyquinoline)], the “% MLs” value ([1]; Buffer/CH3OH (1/1)) is reported as 50%, the “% MLs” value ([1]; Buffer/DMSO (2/8)) is reported as 55% and the “% MLs” value ([1]; Buffer/dioxane (1/1)) is reported as 45%. For the same compound, the “percentage of the CuLs species at equilibrium, competing ligand CTDA” value [1, 5] was 15%, the “percentage of the CuLs species at equilibrium, competing ligand EDA” value [1, 5] was 100% and the “percentage of the CuLs species at equilibrium, competing ligand EDDA” value [1, 5] was 100%. The “percentage … competing ligand EDTA” value [1, 5] was 50%, the “percentage of the CuLs species at equilibrium, competing ligand HIDA” value [1, 5] was 100% and the “percentage of the CuLs species at equilibrium, competing ligand Tetren” value [1, 5] was 0%. For the same compound, the “percentage of the CuLs species at equilibrium, competing ligand Trien” value [1, 5] was 30%, the “percentage of the CuLs species at equilibrium, competing ligand biPy” value [1, 5] was 100% and the “number of Lc equivalents making it possible to form 50% of CuLs, Lc = EDTA” value [1] was 1 eq. For the same compound, the “CuCl2 % soluble Aβ” value (Aβ1-42) was 47 ± 3%, the “FeCl3 % soluble Aβ” value (Aβ1-42) was 60% and the “ZnCl2 % soluble Aβ” value (Aβ1-42) was 59%. The “without metal % soluble Aβ” value (Aβ1-42) was 56%, the “TA100 Cytotoxicity” value [4, 8] was over 3000 µg and the “TA100 Mutagenic effect” value [4, 8] was over 3000 µg. For the same compound, the “TA100 Cytotoxicity” value [4, 9] was over 3000 µg, the “TA100 Mutagenic effect” value [4, 9] was over 3000 µg and the H2O2 assayed [2, 6] was 3.7 (3.7) nanomoles. For the same compound, the H2O2 assayed ([2]; 3.0 nanomoles H2O2 added just before the ascorbate) was 3.8 nmol, the H2O2 assayed ([2]; no H2O2 added) was 0.71 ± 0.02 nmol and the “theoretical value of H2O2 if there is no degradation (in parentheses)” value [3, 7] was 3.7 (3.7) nanomoles. For the same compound, the “theoretical value of H2O2 if there is no degradation (in parentheses)” value ([3]; Aβ1-42 0.2 μM, Cu(II), 3.0 nanomoles H2O2 added just before the ascorbate) was 3.7 nmol, the H2O2 assayed ([3]; ascorbate 10 μM, 3.0 nanomoles H2O2 added just after ascorbate) was 3.8 (3.8) nanomoles and the H2O2 assayed ([3]; ascorbate 10 μM, no H2O2 added) was 0.84 nmol. For the same compound, the H2O2 assayed ([3]; no ascorbate, 3.0 nanomoles H2O2 added) was 3.1 nmol and the “theoretical value of H2O2 if there is no degradation (in parentheses)” value ([3]; no Aβ1-42, Cu(II), 3.0 nanomoles H2O2 added just after ascorbate) was 3.8 (3.8) nanomoles.
In the case of `O=C(c1ccc2cccc(O)c2n1)c1ccc2cccc(O)c2n1` [Compound 6, Bis(8-hydroxy-2-quinoline)methanone], the “percentage … competing ligand EDTA” value [1, 5] is reported as 75%, the “CuCl2 % soluble Aβ” value (Aβ1-42) is reported as 58 ± 3% and the “FeCl3 % soluble Aβ” value (Aβ1-42) is reported as 51%. For the same compound, the “ZnCl2 % soluble Aβ” value (Aβ1-42) was 54%, the “without metal % soluble Aβ” value (Aβ1-42) was 56% and the H2O2 assayed [2, 6] was 3.6 nmol. The H2O2 assayed ([2]; no H2O2 added) was 0.87 ± 0.11 nmol and the “theoretical value of H2O2 if there is no degradation (in parentheses)” value [3, 7] was 3.9 nmol.
